From patent publication US7625411B2, “Insecticidally treated fabric having improved wash durability and insecticidal efficacy and method for its production” (Piedmont Chemical Industries I, LLC, priority 2004, dated 2009)

Assay: Wash durability of permethrin-treated polyester fabric: accelerated laundering (AATCC Test Method 61-1996), solvent extraction, gas chromatography
Format: physicochemical
Conditions: without the binder system, just after the first wash
Procedure: A polyester warp fleece weighing approximately 7.6 oz. per linear yard was used in this trial. Based on the weight of the fabric, calculating the percent wet pick-up the of fabric using production sqeeze pressures in the pad application, and the amount of permethrin target (1.25 g/m^2), the quantity of permethrin to be added to the pad bath was calculated using the above equation to be 1.68%. […] The fabric was padded and dried at a normal drying temperature for polyester (330 to 350° F.).
After the application of permethrin to the fabric, samples of the treated fabric were extracted with toluene according to the procedure outlined below in order to determine the amount of permethrin loaded onto the fabric. A swatch of fabric measuring approximately two feet by two feet is cut from the treated roll of fabric. From that swatch, 3 smaller pieces measuring 10 cm by 10 cm, were cut and used for extraction of permethrin. Each 10 by 10 swatch was placed in a 250 ml flat-bottomed flask, and from 50-75 ml of an extraction solvent (e.g., 1,1,1-trichloroethane) was added thereto. The flask was then equipped with a reflux condenser and placed on a hot plate and allowed to reflux for 0.5-0.75 hr. Once the samples have finished refluxing and have cooled, 0.05mg/ml of dioctylphthalate (“DOP”) is added to the liquid fraction as an internal standard for gas chromatography (“gc”). […]

Structure (SMILES): CC1(C)C(C=C(Cl)Cl)C1C(=O)OCc1cccc(Oc2ccccc2)c1 (centres unmarked) [permethrin]
- permethrin remaining in the fabric: 0.20-0.30 g/m^2
- permethrin washed out of the fabric, of the initial amount loaded: 60-80%
